Test results as given in the Kinase Knowledgebase extract (Sharma et al. 2016).
pIC50: −log10 of the molar value.

Columns and labels:
[1] = molecular target: CDK2 (human) (UniProt P24941); assay: Enzyme Assay
[2] = molecular target: CDK2 (human) (UniProt P24941); assay: Cell-Based Assay
[3] = molecular target: EGFR (human) (UniProt P00533)
Sequence of EGFR (human) (P00533 whole entry, looked up): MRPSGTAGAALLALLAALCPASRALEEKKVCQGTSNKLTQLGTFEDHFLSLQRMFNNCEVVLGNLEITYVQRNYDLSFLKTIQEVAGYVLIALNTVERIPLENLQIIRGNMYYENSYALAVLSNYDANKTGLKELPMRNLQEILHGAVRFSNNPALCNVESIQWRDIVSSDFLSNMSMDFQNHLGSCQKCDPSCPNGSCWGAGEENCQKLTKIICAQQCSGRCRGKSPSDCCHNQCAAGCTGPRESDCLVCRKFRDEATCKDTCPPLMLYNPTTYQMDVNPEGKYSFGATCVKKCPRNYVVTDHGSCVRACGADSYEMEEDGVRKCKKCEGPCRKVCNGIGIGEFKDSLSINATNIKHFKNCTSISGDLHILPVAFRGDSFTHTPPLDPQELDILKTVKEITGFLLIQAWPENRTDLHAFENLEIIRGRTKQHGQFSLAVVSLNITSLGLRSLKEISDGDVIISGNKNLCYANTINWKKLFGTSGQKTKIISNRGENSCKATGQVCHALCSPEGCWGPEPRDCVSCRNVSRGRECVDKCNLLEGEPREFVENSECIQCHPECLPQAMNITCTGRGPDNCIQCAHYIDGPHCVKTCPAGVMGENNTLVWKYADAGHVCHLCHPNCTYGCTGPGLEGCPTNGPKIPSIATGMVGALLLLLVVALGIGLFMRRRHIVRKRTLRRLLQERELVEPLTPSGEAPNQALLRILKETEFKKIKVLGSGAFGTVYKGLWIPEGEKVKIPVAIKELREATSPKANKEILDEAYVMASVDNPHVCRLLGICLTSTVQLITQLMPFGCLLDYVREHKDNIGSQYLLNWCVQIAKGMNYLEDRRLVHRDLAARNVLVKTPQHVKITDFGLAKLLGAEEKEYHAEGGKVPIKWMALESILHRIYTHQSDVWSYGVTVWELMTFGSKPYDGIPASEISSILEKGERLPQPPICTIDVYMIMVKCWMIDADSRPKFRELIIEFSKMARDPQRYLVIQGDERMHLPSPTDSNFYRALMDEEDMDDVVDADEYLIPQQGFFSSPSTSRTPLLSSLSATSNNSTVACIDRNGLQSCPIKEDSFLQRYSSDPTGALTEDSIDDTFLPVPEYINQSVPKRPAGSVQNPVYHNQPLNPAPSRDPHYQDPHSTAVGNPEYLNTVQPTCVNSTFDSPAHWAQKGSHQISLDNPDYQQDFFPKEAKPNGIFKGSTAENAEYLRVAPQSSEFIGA

SMILES | pIC50 [1] | pIC50 [3] | GI50 ([2]; a431) [µM] | GI50 ([2]; hct 116) [µM]
Cc1nc(NN=Cc2ccco2)nc(-c2ccc(O)cc2O)c1C(=O)Nc1cccc([N+](=O)[O-])c1 | 5.42 | < 4.00 | 2.91 | 8.89
CC1=CN(c2nc(C)c(C(=O)Nc3cccc([N+](=O)[O-])c3)c(-c3ccc(O)cc3O)n2)C(=O)C1=Cc1ccco1 | 4.99 | < 4.00 | 15.8 | > 100
Cc1nc(NN)nc(-c2ccc(O)cc2O)c1C(=O)Nc1cccc([N+](=O)[O-])c1 | < 4.00 | 4.32 | 24.3 | 47.7
CC1=C(C(=O)Nc2cccc([N+](=O)[O-])c2)C(c2ccc(O)cc2O)NC(SCc2ccccc2)=N1 (stereo not given) |  |  | > 100 | 
Clc1cccc(Nc2ncnc3cc4c(cc23)OCCO4)c1 |  | 9.10 |  | 
CC1=C(C(=O)Nc2cccc([N+](=O)[O-])c2)C(c2ccc(O)cc2O)NC(NCc2ccccc2)=N1 (stereo not given) |  |  |  | > 100
Cc1nc(NN=Cc2cccs2)nc(-c2ccc(O)cc2O)c1C(=O)Nc1cccc([N+](=O)[O-])c1 | 4.64 | < 4.00 | 19.1 | 38.2

Further lines, with some results ahead:

pIC50 [1] | pIC50 [3] | SMILES | GI50 ([2]; a431) [µM] | GI50 ([2]; hct 116) [µM]
5.51 | < 4.00 | CC1=CN(c2nc(C)c(C(=O)Nc3cccc([N+](=O)[O-])c3)c(-c3ccc(O)cc3O)n2)C(=O)C1=Cc1cccs1 | 37.1 | 26.5
6.52 | 4.09 | Cc1nc(NN2C(=O)C(=Cc3cccs3)SC2=S)nc(-c2ccc(O)cc2O)c1C(=O)Nc1cccc([N+](=O)[O-])c1 | 2.78 | 4.5
4.55 | < 4.00 | Cc1nc(NN2C(=O)C(=Cc3ccccc3)SC2=S)nc(-c2ccc(O)cc2O)c1C(=O)Nc1cccc([N+](=O)[O-])c1 | 24.3 | 16.6
6.40 | 4.00 | Cc1nc(NN2C(=O)C(=Cc3ccco3)SC2=S)nc(-c2ccc(O)cc2O)c1C(=O)Nc1cccc([N+](=O)[O-])c1 | 28.9 | > 100
